{
  "source": "patent US20120122966A1",
  "about": "“USE OF ORGANIC DYES AS ANALGESIC AGENTS” (priority 2009, published 2012)",
  "type_in_all_cases": "in vivo, human",
  "key": {"[1]": {"system": "renal cell carcinoma, lung and bone metastases, excruciating bone pain", "assay": "Example 2: patient T., renal cell carcinoma with lung and bone metastases, bone pain, treated with crystal violet", "experimental": "Patient four. Three years ago, the left kidney was removed, and preventive chemotherapy was administered for renal cell carcinoma. In a CT examination, a 2.5×2.4×2.3 cm tumor-like mass in the right kidney projection, three round tumor-like masses from 2.6 to 2.3 cm in diameter in the left lung, and numerous bone metastases. Grave condition, dyspnea, cyanosis, […]. Complaints of excruciating bone pain. […] Treatment prescribed, including the use of an antitumor medicinal preparation. The preparation, crystal violet, was administered by mouth as a potion-16 drops of a 1% solution three times a day, and as microclysters. After 7 days of treatment, dyspnea abated, and the pain syndrome disappeared. Blood tests against the background of treatment have normalized over 3 weeks. Then, the course was repeated using crystal violet preparation which was administered into rectum in the form of 1% suppositories and by inhaling, for 12 months with half-month long breaks. During the therapy the right kidney tumor and lung metastases disappeared. No pain. Weight restored."}, "[2]": {"system": "pancreas head blastoma, pain", "assay": "Example 5: patient Z., pancreas head blastoma with neck lymph node metastases, pain, treated with gentian violet", "text": "Patient two. […] Started chemotherapy. After three weeks the condition began rapidly deteriorating, accompanied by extreme weight loss—from 95 kg to 72 kg. Pain became considerably more severe. Stomach pain occurs before having a meal, i.e. after having a meal the pain is lower. At the same time stool was lightly yellow—very light color. The patient had been taking an analgesic—ketanol—infrequently, but lately has been taking it two times a day. […] Immediately after the end of the first course of phthorafurum the patient began taking gentian violet preparation, 3 mg per 50 kg of weight two times a day."}, "osteoarthrosis pain": {"system": "osteoarthrosis pain", "assay": "Example 7: patient T., osteoarthrosis with joint deformation, permanent pain", "experimental": "Patient four. Complaints of not being able to raise their right arm above the shoulder level. In CT, effects of osteoarthrosis with joint deformation were noticed. Taking analgesic preparations turned out to be ineffective. Pain became permanent. Gentian violet preparation was prescribed, 0.0004 mg/kg of weight once a day."}, "[3]": {"system": "poorly differentiated pulmonary adenocarcinoma, MTS to the brain and skeleton bones, pain syndrome", "assay": "Example 1: patient V., pulmonary adenocarcinoma with MTS, pain syndrome, treated with gentian violet", "experimental": "Patient six. Diagnosis: poorly differentiated pulmonary adenocarcinoma. MTS [expansion not given; possibly metastases] to the brain and skeleton bones. Cachexia. Pain syndrome. Relatives state that over the last two months the patient has been receiving 5.0 ml of heroin intravenously three times a day. Otherwise, they note resumption of pronounced excruciating pain. In CT, several tumor-like masses in the mediastinum and left lung, average size 3.9×3.6×3.2 cm. Grave condition, dyspnea, cyanosis, adynamia, and sensations of pain, getting stronger when coughing. Treatment was prescribed that included the use of medicinal preparations with antineoplastic action—an organic dye, a 1% gentian violet solution. The first course of treatment using the preparation—15 drops of a 1% solution in a glass of water three times a day by mouth, additionally a microclyster—10 drops of a 1% solution in 30 ml of water at lunch, and q.h.s. a 1% suppository with the preparation. […] On the third week of treatment with the preparation the patient's condition improved. […] The lung tumor size dropped to 2.1×2.2×2.2 cm. After six months of treatment the tumor size dropped to 0.3×0.4×1.0 cm. […] Blood tests against the background of treatment have normalized."}, "migraine": {"system": "migraine", "assay": "Example 8: patient O., migraine", "details": "third day; 2 g in 100 ml of water on an empty stomach two times a day", "experimental": "Patient five.\nComplaints of periodic excruciating pain in the right temporal area. Diagnosis: migraine. Prescribed treatment: malachite green oxalate preparation, 2 g dissolved in 100 ml of water on an empty stomach two times a day."}, "[4]": {"system": "metastasizing melanoma of the right forearm, metastases to the liver, pain", "assay": "Example 4: patient D., metastasizing melanoma, treated with malachite green oxalate", "experimental": "Patient three. Diagnosis: metastasizing melanoma of the right forearm. Metastases to the liver and right eye. Three years ago melanoma resection was performed. A year and a half later gripes appeared in the right eye. Eye enucleation for metastasis was performed. In the examination of the internal organs, a 4×5×4 cm metastasis in the liver was detected. At the same time, relapse in the surgery area appeared. Complaints of severe pain in the liver and pain in the relapse area. Objectively: medium severity condition, skin integument pallor, a purple tumor-like mass on the right forearm with a 4×5×5 cm pronounced edema. […] Began treatment with the preparation according to the following regimen: 5 ml of a 0.000001% sterile solution of malachite green oxalate was injected under the tumor base. Later, a 2% ointment with the same preparation was applied to the skin surface. Two times a day, 500 mg of malachite green oxalate diluted in 500 ml of saline was administered intravenously. Also, 5 g of malachite green oxalate was diluted in water and administered by mouth, as well as in the form of microclysters. […] The course had continued for 3 months."}, "[5]": {"system": "bladder cancer, metastases in pelvic bones, pain", "assay": "Example 3: patient L., bladder cancer with pelvic bone metastases, treated with malachite green oxalate", "experimental": "Patient one. Diagnosis: bladder cancer. Metastases in pelvic bones. Three years ago bladderectomy was performed for cancer. Complaints of pain, bloody urine, frequent urination and pelvic bone pains. In CT, a 2×2×2 cm tumor-like mass in the projection of the mouth of the right ureter and a 1.5×1.1×0.9 cm in the projection of the mouth of the left ureter. In the wing of the left illium two tumor-like masses with irregular contours, 1.5 to 2.5 cm in diameter. Medium severity condition, skin integument pallor, blood in urine. […] Began treatment with the preparation—20 drops of a 1% solution of malachite green oxalate in half a glass of water by mouth and in the form of microclysters. […] The course had lasted for 4 months. […] Biphosphonates were prescribed for replacement therapy."}},
  "data": [
    {"compound": "CN(C)c1ccc(C(=C2C=CC(=[N+](C)C)C=C2)c2ccc(N(C)C)cc2)cc1", "note": "[crystal violet]", "values": [
      {"measurement": "pain syndrome", "setting": "[1]; after 7 days of treatment", "value": "disappeared"},
      {"measurement": "dyspnea", "setting": "[1]; after 7 days, 16 drops of 1% solution by mouth three times a day and microclysters", "value": "abated"},
      {"measurement": "pain", "setting": "[1]; after the 12-month course", "value": "No pain"},
      {"measurement": "weight", "setting": "[1]; after the 12-month course", "value": "restored"},
      {"measurement": "right kidney tumor and lung metastases", "setting": "[1]; during therapy, 1% suppositories and inhaling for 12 months with breaks", "value": "disappeared"},
      {"measurement": "blood tests", "setting": "[1]; over 3 weeks", "value": "normalized"}
    ]},
    {"compound": "CN(C)c1ccc(C(=C2C=CC(=[N+](C)C)C=C2)c2ccc(N(C)C)cc2)cc1", "note": "[gentian violet]", "values": [
      {"measurement": "pain", "setting": "[2]; after 3 days, 3 mg per 50 kg of weight two times a day", "value": "abated significantly"},
      {"measurement": "return of pain", "setting": "[2]; hereinafter", "value": "has not returned"},
      {"measurement": "pain", "setting": "[2]; later than 3 days (then)", "value": "stopped completely"},
      {"measurement": "pain", "setting": "osteoarthrosis pain; after a week", "value": "disappeared completely"},
      {"measurement": "pain", "setting": "osteoarthrosis pain; after three days, 0.0004 mg/kg of weight once a day", "value": "abated"},
      {"measurement": "brain metastases", "setting": "[3]; after six months of treatment", "value": "No brain metastases are observed"},
      {"measurement": "dyspnea", "setting": "[3]; after six months of treatment", "value": "abated"},
      {"measurement": "pain syndrome", "setting": "[3]; after six months of treatment", "value": "practically absent"},
      {"measurement": "blood tests", "setting": "[3]; against the background of treatment", "value": "normalized"},
      {"measurement": "pain syndrome after the sessions", "setting": "[3]; first week, for several hours after sessions, 1% solution by mouth, microclyster, suppository", "value": "substantial improvement of the pain syndrome"},
      {"measurement": "patient's condition", "setting": "[3]; third week of treatment", "value": "improved"},
      {"measurement": "MTS in the brain in CT", "setting": "[3]; three months after start of treatment", "value": "no MTS in the brain were observed"}
    ]},
    {"compound": "malachite green oxalate", "values": [
      {"measurement": "pain", "setting": "migraine", "value": "abated and has not recurred"},
      {"measurement": "blood tests", "setting": "[4]; 4th week", "value": "normalized"},
      {"measurement": "return of pain", "setting": "[4]; complete course of 6 months", "value": "did not return"},
      {"measurement": "weight", "setting": "[4]; complete course of 6 months", "value": "restored"},
      {"measurement": "decrease of liver metastasis", "setting": "[4]; during the 3-month course, baseline 4×5×4 cm", "value": 1.5, "unit": "cm"},
      {"measurement": "use of narcotics by the patient", "setting": "[4]; fifth day after the start of treatment", "value": "declined taking narcotics"},
      {"measurement": "pain in the area of metastases", "setting": "[4]; sixth day, injection under tumor, 2% ointment, intravenous, by mouth, microclysters", "value": "became duller"},
      {"measurement": "use of narcotic analgesics by the patient", "setting": "[4]; stated after the tenth day, previously 3.0 ml of morphine four times a day", "value": "declined taking narcotic analgesics"},
      {"measurement": "pain in the area of metastases", "setting": "[4]; tenth day", "value": "disappeared completely"},
      {"measurement": "bladder tumor and pelvic metastases", "setting": "[5]; complete course of 6 months", "value": "disappeared"},
      {"measurement": "return of pain", "setting": "[5]; complete course of 6 months", "value": "did not return"},
      {"measurement": "weight", "setting": "[5]; complete course of 6 months", "value": "restored"},
      {"measurement": "blood tests", "setting": "[5]; fourth week", "value": "normalized"},
      {"measurement": "decrease of pelvic bone metastases", "setting": "[5]; over the 4-month course", "value": 1.5, "unit": "cm"},
      {"measurement": "use of narcotic analgesics by the patient", "setting": "[5]; previously 5.0 ml of morphine three times a day", "value": "declined taking narcotic analgesics"},
      {"measurement": "pain in the area of metastases", "setting": "[5]; sixth day, 20 drops of 1% solution by mouth and microclysters", "value": "got duller"},
      {"measurement": "pain in the area of metastases", "setting": "[5]; tenth day", "value": "disappeared completely"}
    ]}
  ]
}
